These results are taken from ChEMBL document CHEMBL1201862, “PubChem BioAssay data set” (2004).

Some test systems named below: HL-60; SW-620; OVCAR-3; OVCAR-8; Malme-3M; UACC-257; SK-OV-3; UACC-62; SF-539; OVCAR-4; HOP-92; NCI-H23; SNB-75; SK-MEL-28; RXF 393; NCI-H226; SR.
Holding throughout (test): growth of human tumour cells (NCI), 48 h

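In this assay, cells in 96-well plates receive the compound at five concentrations for 48 hours. Endpoints are linearly interpolated between the surrounding concentrations. Here, GI50 denotes the concentration required for 50% inhibition of growth.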 The source made the active and inactive calls. Rule as the data show it: active = GI50 up to about 1.1 µM and inactive = higher.

Turning to `Cc1cccc(NC(=O)/C(=N\NC(C)(C)C)C2NC(=S)NC2=O)c1C` (stereo not given), the GI50 in the assay with HL-60, in the assay with SW-620, with OVCAR-3, in the assay with OVCAR-8, with Malme-3M and in the assay on UACC-257 was > 100 µM (inactive) throughout. Besides, the GI50 in the assay with SK-OV-3, in the assay with UACC-62, in the assay with SF-539 and with OVCAR-4 was > 100 µM (inactive) in each case.

`C=C(/C=C/C=C(\CO)CCC=C(C)C)[C@H]1CCC2([C@H](CCCO)/C(=C(/C)C=O)CC[C@]2(C)O)[C@H]1O` (stereo not given in full): the GI50 is 56.1 µM (inactive) with HL-60; > 100 µM (inactive) in the assay on SW-620; > 100 µM (inactive) with OVCAR-3; > 100 µM (inactive) in the assay on OVCAR-8; > 100 µM (inactive) in the assay on Malme-3M; 3.56 µM (inactive) in the assay on HOP-92. Besides, the GI50 was > 100 µM (inactive) in the assay with UACC-257; > 100 µM (inactive) in the assay on NCI-H23; > 100 µM (inactive) with SK-OV-3; > 100 µM (inactive) with UACC-62; 58.6 µM (inactive) with SNB-75; 83.4 µM (inactive) with SF-539. Moreover, the GI50 in the assay on SK-MEL-28 and in the assay on OVCAR-4 was > 100 µM (inactive) each time.

Turning to `C[C@]12CCC(=O)C=C1CC[C@@H]1C2CC[C@]2(C)c3nn(-c4ccccc4)nc3CC12` (stereo not given in full), the GI50 in the assay with HL-60, in the assay with SW-620, with OVCAR-3, with RXF 393, with OVCAR-8 and in the assay on Malme-3M was > 100 µM (inactive) each time. Besides, the GI50 with HOP-92, with UACC-257, in the assay on NCI-H23, with SK-OV-3, in the assay on NCI-H226 and in the assay with UACC-62 was > 100 µM (inactive) in each case. For the same molecule, the GI50 with SNB-75, in the assay on SF-539, in the assay on SK-MEL-28 and in the assay with OVCAR-4 was > 100 µM (inactive) each time.

Consider `COC1OC(CO)C(O)C(OC(C)=O)C1NC(=O)N(CCCl)N=O` (stereo not given), for which the GI50 was 3.52 µM (inactive) in the assay with HL-60; > 100 µM (inactive) in the assay on SW-620; > 100 µM (inactive) in the assay with OVCAR-3; > 100 µM (inactive) with RXF 393; > 100 µM (inactive) with OVCAR-8; > 100 µM (inactive) in the assay with Malme-3M. For the same molecule, the GI50 with UACC-257 was > 100 µM (inactive); with NCI-H23 it was > 100 µM (inactive); in the assay on SK-OV-3, > 100 µM (inactive); with NCI-H226 it was > 100 µM (inactive); in the assay on UACC-62, 24.8 µM (inactive); in the assay on SNB-75, 46 µM (inactive). In addition, the GI50 in the assay with SF-539 was 34.3 µM (inactive); in the assay on SK-MEL-28, > 100 µM (inactive); with OVCAR-4, > 100 µM (inactive).

`COc1ccc2ccccc2c1C1OC(=O)c2ccccc21` (stereo not given): the GI50 in the assay with HL-60 was 44.3 µM (inactive); with SW-620 it was 87.9 µM (inactive); in the assay with OVCAR-3, > 100 µM (inactive); in the assay with OVCAR-8, > 100 µM (inactive); in the assay on Malme-3M it was > 100 µM (inactive); in the assay with HOP-92 it was > 100 µM (inactive). The GI50 with UACC-257 was 91 µM (inactive); in the assay on NCI-H23, > 100 µM (inactive); in the assay with SK-OV-3 it was > 100 µM (inactive); in the assay with NCI-H226, > 100 µM (inactive); in the assay with UACC-62, 80 µM (inactive); in the assay with SF-539 it was > 100 µM (inactive). The GI50 in the assay with OVCAR-4 is 82.8 µM (inactive).

Turning to `CC1=NN(C(=O)Cc2ccccc2)C(=O)/C1=C/c1c(O)ccc2ccccc12`, the GI50 was 49.2 µM (inactive) with HL-60; 39.4 µM (inactive) with SW-620; 48.6 µM (inactive) in the assay on OVCAR-3; 37.2 µM (inactive) with OVCAR-8; 15.8 µM (inactive) in the assay on Malme-3M; 37.5 µM (inactive) with UACC-257. Besides, the GI50 in the assay on NCI-H23 was 61.7 µM (inactive); in the assay on NCI-H226, 27 µM (inactive); in the assay with SR, 45.7 µM (inactive); in the assay with SNB-75 it was 29.6 µM (inactive); in the assay with SF-539, 29.2 µM (inactive); with SK-MEL-28, 40.7 µM (inactive). Besides, the GI50 in the assay on OVCAR-4 was 78.9 µM (inactive).

In the case of `N/C=N/S(=O)(=O)c1ccc(NC(=O)COC(=O)c2cccc3c(=O)c4ccccc4[nH]c23)cc1`, the GI50 in the assay with HL-60, with SW-620, with OVCAR-3, in the assay on RXF 393, with OVCAR-8 and with Malme-3M was > 100 µM (inactive) throughout. Besides, the GI50 with UACC-257, in the assay on NCI-H23, with SK-OV-3, in the assay on NCI-H226, in the assay on UACC-62 and in the assay with SNB-75 was > 100 µM (inactive) throughout. The GI50 in the assay on SF-539 and with SK-MEL-28 was > 100 µM (inactive) each time.

Take `CCc1cccc(CC)c1NC(=O)C1=C(C)NC(C)=C(C(=O)Nc2c(CC)cccc2CC)C1c1ccc([N+](=O)[O-])cc1`: the GI50 is 16.4 µM (inactive) in the assay with HL-60; 17.7 µM (inactive) with SW-620; 32.1 µM (inactive) with OVCAR-3; 17.1 µM (inactive) with RXF 393; 20.4 µM (inactive) with OVCAR-8; 17.3 µM (inactive) with Malme-3M. Besides, the GI50 was 10.3 µM (inactive) in the assay with HOP-92; 15.4 µM (inactive) with UACC-257; 22.8 µM (inactive) in the assay with NCI-H23; 38.1 µM (inactive) with SK-OV-3; 26.1 µM (inactive) with NCI-H226; 24.5 µM (inactive) in the assay with SNB-75. Further, the GI50 in the assay on SF-539 is 16.2 µM (inactive); with SK-MEL-28, 17.4 µM (inactive); with OVCAR-4 it was 12.3 µM (inactive).

As for `CC1(C)CC23C(=O)N(c4ccccc4)C(Nc4ccccc4)=NC2=CC(C#N)=C(C#N)C3O1` (stereo not given), the GI50 in the assay with HL-60 is 27.4 µM (inactive); in the assay with SW-620, 37.7 µM (inactive); in the assay with OVCAR-3, > 100 µM (inactive); with RXF 393, 15.2 µM (inactive); with OVCAR-8, 99.5 µM (inactive); in the assay on Malme-3M it was 46.3 µM (inactive). Further, the GI50 in the assay with HOP-92 was 11.2 µM (inactive); with UACC-257 it was 43.3 µM (inactive); in the assay with NCI-H23, 34.9 µM (inactive); in the assay with NCI-H226, 26.4 µM (inactive); in the assay with UACC-62 it was 96.4 µM (inactive); in the assay with SNB-75, 48.8 µM (inactive). Besides, the GI50 with SF-539 was 34.8 µM (inactive); in the assay with SK-MEL-28 it was > 100 µM (inactive); with OVCAR-4, 22.6 µM (inactive).

Take `Cc1ccccc1NC(=O)C(=O)CC(=O)c1c(C)[n+]([O-])c2ccccc2[n+]1[O-]`: the GI50 in the assay with SW-620 was > 100 µM (inactive); with OVCAR-3, > 100 µM (inactive); in the assay with RXF 393 it was > 100 µM (inactive); in the assay with OVCAR-8 it was > 100 µM (inactive); in the assay with Malme-3M it was > 100 µM (inactive); in the assay with UACC-257, 16 µM (inactive). Also, the GI50 in the assay with NCI-H23 was > 100 µM (inactive); in the assay with SK-OV-3, > 100 µM (inactive); in the assay with NCI-H226, > 100 µM (inactive); with SR, 0.0278 µM (active); in the assay with UACC-62, > 100 µM (inactive); in the assay with SNB-75, 40 µM (inactive). The GI50 with SF-539 is > 100 µM (inactive); in the assay with SK-MEL-28, > 100 µM (inactive); in the assay with OVCAR-4, 76.9 µM (inactive).

In the case of `Nc1nc2c(-c3ccc([N+](=O)[O-])cc3)nnn2c2ccccc12`, the GI50 is > 100 µM (inactive) in the assay on HL-60; > 100 µM (inactive) in the assay on SW-620; 29.6 µM (inactive) with OVCAR-3; 75.9 µM (inactive) in the assay with OVCAR-8; > 100 µM (inactive) with Malme-3M; > 100 µM (inactive) with HOP-92. Further, the GI50 in the assay with NCI-H23 was 37.2 µM (inactive); in the assay on SK-OV-3, 51.4 µM (inactive); in the assay on NCI-H226, > 100 µM (inactive); in the assay with UACC-62 it was > 100 µM (inactive); in the assay on SNB-75, > 10 µM (inactive); with SF-539 it was > 100 µM (inactive). The GI50 in the assay on SK-MEL-28 and in the assay with OVCAR-4 was > 100 µM (inactive) throughout.

On to `CCCCOC(=O)C1C2CCC(O2)C1C(=O)OCCCC` (stereo not given), for which the GI50 was > 100 µM (inactive) in the assay on HL-60; > 100 µM (inactive) with OVCAR-3; > 61.9 µM (inactive) in the assay on RXF 393; > 100 µM (inactive) in the assay with OVCAR-8; > 100 µM (inactive) with Malme-3M; > 100 µM (inactive) with HOP-92. The GI50 with UACC-257 is > 55.1 µM (inactive); with NCI-H23 it was > 100 µM (inactive); in the assay on SK-OV-3, > 100 µM (inactive); in the assay with NCI-H226 it was > 100 µM (inactive); in the assay with UACC-62 it was > 100 µM (inactive); in the assay on SNB-75, > 100 µM (inactive). For the same molecule, the GI50 in the assay on SF-539 is > 76.6 µM (inactive); in the assay with SK-MEL-28 it was > 96.8 µM (inactive); in the assay with OVCAR-4, > 87.1 µM (inactive).

In the case of `CCOc1ccc(/N=C/c2ccc3ccccc3n2)cc1`, the GI50 in the assay with HL-60 was > 47.1 µM (inactive); in the assay on SW-620, > 100 µM (inactive); with OVCAR-3, > 100 µM (inactive); with RXF 393, > 100 µM (inactive); in the assay with OVCAR-8, > 100 µM (inactive); in the assay on Malme-3M, > 100 µM (inactive). The GI50 was > 75.3 µM (inactive) in the assay on HOP-92; > 100 µM (inactive) in the assay on UACC-257; > 100 µM (inactive) in the assay on NCI-H23; > 100 µM (inactive) with SK-OV-3; > 100 µM (inactive) in the assay on NCI-H226; > 100 µM (inactive) in the assay with UACC-62. Moreover, the GI50 in the assay on SNB-75 is > 35.3 µM (inactive); in the assay on SF-539, > 100 µM (inactive); in the assay on SK-MEL-28, > 100 µM (inactive); in the assay on OVCAR-4, > 100 µM (inactive).
